Measured values taken from patent US10028966B2 (Avalyn Pharma Inc., priority 2014, dated 2018).
Converted amounts (≈) assume the structure as drawn. Like-named read-outs stand apart in the source and are kept apart here.

Legend:
2E1 = biological target: T1, 2E1 (Homo sapiens, UniProt P05181); settings: hepatic microsomes; cited from earlier work
T1 construct: In vitro metabolism studies with hepatic microsomes; from tissue; host or cells: hepatic microsomes

2C19 = biological target: T2, 2C19 (Homo sapiens, UniProt P33261); settings: hepatic microsomes; cited from earlier work
T2 construct: In vitro metabolism studies with hepatic microsomes; from tissue; host or cells: hepatic microsomes
T2 sequence (P33261 whole entry): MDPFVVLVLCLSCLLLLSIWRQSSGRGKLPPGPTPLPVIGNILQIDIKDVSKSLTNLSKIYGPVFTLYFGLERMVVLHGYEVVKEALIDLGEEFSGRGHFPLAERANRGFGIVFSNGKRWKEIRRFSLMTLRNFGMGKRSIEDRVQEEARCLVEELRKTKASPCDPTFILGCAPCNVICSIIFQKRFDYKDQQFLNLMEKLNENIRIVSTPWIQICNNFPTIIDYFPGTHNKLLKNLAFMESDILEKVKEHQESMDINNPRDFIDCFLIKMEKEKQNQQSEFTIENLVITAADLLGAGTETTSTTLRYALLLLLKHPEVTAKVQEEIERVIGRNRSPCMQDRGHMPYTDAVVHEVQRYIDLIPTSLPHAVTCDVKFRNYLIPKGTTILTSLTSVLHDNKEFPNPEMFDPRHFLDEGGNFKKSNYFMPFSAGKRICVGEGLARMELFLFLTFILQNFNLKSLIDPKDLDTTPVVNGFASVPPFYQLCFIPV

[1] = Modeled human inhaled aerosol pirfenidone pharmacokinetics (FIG. 2, FIG. 5, Table 28)
Text: More specifically, the oral route requires a large oral dose to achieve a relatively small lung tissue Cmax. Delivering a similar Cmax without the large systemic dose provides increased efficacy. However, further escalating this direct lung dose, which results in increased systemic exposure, reduces this effect. […] Specifically, a high lung tissue Cmax is important for lung tissue anti-fibrotic efficacy. However, this positive effect appears dependent upon an associated small plasma AUC; the larger the plasma AUC, the lower the efficacy. […] In practice, the oral route of administration is not capable of meeting this U-shaped-restricted dose response. Safety and tolerability prevent further dose escalation of the 801 mg/dose oral medicine (Esbriet®). […] To illustrate these findings, possible human lung tissue and plasma pharmacokinetics following tidal-breath-inhaled aerosol administration were again modeled (FIG. 5). […] These safety and/or tolerability restrictions may be associated with plasma AUC, plasma Cmax, gastrointestinal exposure or a combination of these events. […] However, this limitation could also be set as the plasma Cmax or a combination of these pharmacokinetic parameters.
Aerosol deliver parameters for the FIGS. 2 and 5 models were based on high-efficiency, mesh-based nebulizer characterization (Table 12). […] Respirable delivered dose (RDD) calculated by the product of fine particle fraction (FPF, %<5 microns) and inhaled mass. […] For this non-limiting example, a FPF of 78% and inhaled mass of 67% was used. Using these numbers, a 90 mg device-loaded dose may produce an RDD of about 47 mg (Table 26 and FIG. 2). […] For this non-limiting example, a FPF of 78% and inhaled mass of 67% was used. Using these numbers, a 230 mg device-loaded dose may produce an RDD of about 120 mg. […] This later dose was modeled to be delivered in 1 minute.
An additional clinical consideration is the rat plasma AUC showing non-efficacy in the bleomycin model. […] Only lower delivered doses show anti-fibrotic effect. Plasma AUCs obtained from higher intratracheal or oral doses appears to have similar non-efficacy or enhanced disease.

[2] = cited from earlier work; for AUC (0-18 hrs) / Cmax: human
[3] = Extended-duration intratracheal and oral pharmacokinetic study; assay type: in vivo, Wistar rats; settings: for AUC(0-t) / Cmax: Wistar, rat, plasma
Method: Previous intratracheal aerosol delivery (see Example 6) was performed as a single bolus instillation just above the first bifurcation of the lung. For in vivo efficacy studies, an attempt was made to mimic tidal inhaled breathing by splitting the dose into equal parts and administering as before, but over a 2 minute period. […] Doses were prepared in 0.45% sodium chloride solution and were administered as described in Table 21.
Plasma samples and entire lungs were taken at pre-dose, 2, 4, 6, 10, 30, 60 and 120 minutes post dosing. Materials were extracted and pirfenidone quantitated as mcg/mL plasma and μg/gram lung tissue.

[4] = Pharmacokinetics and lung-tissue distribution after oral gavage or intratracheal aerosol; assay type: in vivo, Sprague-Dawley rats; settings: for half-life / Cmax / AUC(0-t): Sprague-Dawley, rat, inhaled or intranasal; for AUC(0-t): read-out: Plasma AUC0-6 hrs; for Lung Cmax: immediate post-dose calculated from direct-lung delivered dose
[5] = in vivo; cited from earlier work
[6] = tested on: inflammasome activation in 264.7 macrophages; test: Inflammasome first signal activation (LPS, secreted IL-1β); assay type: cell-based; settings: Macrophage; read-out: fifty-percent inhibitory concentration (IC50), first-signal inflammasome activation
[7] = Pharmacokinetics and lung-tissue distribution after oral gavage or intratracheal aerosol; assay type: in vivo, Sprague-Dawley rats; settings: for half-life: po, 70 mg/kg
Method: Solutions were vortexed until all crystals dissolved. […] Plasma samples were taken at pre-dose, 0.08, 0.16, 0.25, 0.5, 0.75, 1.0, 1.5, 2, 4, and 6 hours post dosing. For lung tissue samples, eight additional rats were also dosed 70 mg/kg by the oral route. Lungs were taken at pre-dose 0.08, 0.5, 2, and 4 hours post dosing. Materials were extracted and pirfenidone quantitated as μg/mL plasma and μg/gram lung tissue. […]

[8] = oral 801 mg fasted-state, plasma
[9] = inhaled or intranasal, intratracheal aerosol 2.5 mg/kg
[10] = inhaled or intranasal, intratracheal aerosol 5 mg/kg
[11] = inhaled or intranasal, intratracheal aerosol 10 mg/kg
[12] = intratracheal aerosol 2.5 mg/kg

T1 sequence (P05181 whole entry): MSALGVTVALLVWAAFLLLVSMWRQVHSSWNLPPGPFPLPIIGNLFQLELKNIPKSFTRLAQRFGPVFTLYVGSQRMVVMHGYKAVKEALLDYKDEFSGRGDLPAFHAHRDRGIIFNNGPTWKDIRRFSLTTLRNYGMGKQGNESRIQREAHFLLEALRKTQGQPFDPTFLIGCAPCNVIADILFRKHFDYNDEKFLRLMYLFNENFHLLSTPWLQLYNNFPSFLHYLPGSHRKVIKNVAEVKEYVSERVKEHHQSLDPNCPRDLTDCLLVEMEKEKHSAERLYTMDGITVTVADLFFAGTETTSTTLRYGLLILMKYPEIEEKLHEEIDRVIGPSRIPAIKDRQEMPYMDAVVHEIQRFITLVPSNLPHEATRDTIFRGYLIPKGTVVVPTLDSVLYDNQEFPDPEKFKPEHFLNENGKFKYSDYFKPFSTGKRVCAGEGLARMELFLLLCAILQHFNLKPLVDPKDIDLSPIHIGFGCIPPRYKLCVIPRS

With `Cc1ccc(=O)n(-c2ccccc2)c1` [pirfenidone, 5-methyl-1-phenyl-2-(1H)-pyridone] as the compound, how does the “contribution to pirfenidone metabolism” value (2E1) read?
The value was “less than 13%”.

What about the “contribution to pirfenidone metabolism” value (2C19) of the same compound?
The value was “less than 13%”.

What about the “lung tissue Cmax compared to 801 mg oral dose” value ([1]; modeled human, 2.5 mg RDD inhaled over 1 minute) of the same compound?
Its value is “equivalent”.

And the “plasma AUC0-18hrs” value ([1]; modeled human, 29 mg RDD, 3 minute tidal-inhaled nebulized dose)?
Its value is 13400 ng·h/mL.

And the “plasma AUC compared to 801 mg oral pirfenidone dose (with food)” value ([1]; modeled human, 120 mg RDD inhaled over 5 minutes)?
The value was “equivalent”.

What about the “human lung tissue Cmax” value ([1]; modeled, 29 mg RDD, 3 minute tidal-inhaled nebulized dose) of the same compound?
Its value is 43.2 mcg/gram lung tissue.

And the T1/2 beta ([2]; aerosol 47 mg RDD, lung tissue, from plasma T1/2, Rubino et al., 2009 fasted-state)?
The T1/2 beta was 150 min.

And the T1/2 beta ([2]; aerosol 47 mg RDD, plasma, Rubino et al., 2009 fasted-state)?
The T1/2 beta was 150 min.

What about the “AUC (0-18 hrs)” value [2, 8] of the same compound?
The value was 67700 ng·h/mL.

And the Cmax [2, 8]?
Its Cmax is 14.2 microgram/mL.

And the “AUC (0-18 hrs)” value ([2]; oral 801 mg fed-state, plasma)?
Its value is 58900 ng·h/mL.

And the Cmax ([2]; oral 801 mg fed-state, plasma)?
Its Cmax is 7.9 microgram/mL.

And the T1/2 beta ([2]; oral 801 mg fasted-state, lung tissue, from plasma T1/2, Rubino et al., 2009)?
Its T1/2 beta is 150 min.

And the T1/2 beta ([2]; oral 801 mg fasted-state, plasma, Rubino et al., 2009)?
The T1/2 beta was 150 min.

What about the T1/2 beta ([2]; oral 801 mg fed-state, lung tissue, from plasma T1/2, Rubino et al., 2009) of the same compound?
The T1/2 beta was 144 min.

What about the T1/2 beta ([2]; oral 801 mg fed-state, plasma, Rubino et al., 2009) of the same compound?
Its T1/2 beta is 144 min.

What about the “Lung Tissue Cmax” value ([3]; 30 mg/kg PO, rat (Table 22)) of the same compound?
Its value is ~10 µg/mL.

And the AUC(0-t) [3, 9]?
The AUC(0-t) was 3200 ng·h/mL.

What about the Cmax [3, 9] of the same compound?
Its Cmax is 3400 ng/mL.

What about the AUC(0-t) [3, 10] of the same compound?
Its AUC(0-t) is 5800 ng·h/mL.

What about the Cmax [3, 10] of the same compound?
Its Cmax is 8800 ng/mL.

What about the AUC(0-t) [3, 11] of the same compound?
The AUC(0-t) was 14600 ng·h/mL.

And the Cmax [3, 11]?
The Cmax was 22800 ng/mL.

And the AUC(0-t) ([3]; oral gavage 10 mg/kg)?
The AUC(0-t) was 4400 ng·h/mL.

And the Cmax ([3]; oral gavage 10 mg/kg)?
The Cmax was 3600 ng/mL.

What about the AUC(0-t) ([3]; oral gavage 30 mg/kg) of the same compound?
Its AUC(0-t) is 12900 ng·h/mL.

And the Cmax ([3]; oral gavage 30 mg/kg)?
Its Cmax is 9800 ng/mL.

And the AUC(0-t) ([3]; oral gavage 100 mg/kg)?
Its AUC(0-t) is 24200 ng·h/mL.

What about the Cmax ([3]; oral gavage 100 mg/kg) of the same compound?
The Cmax was 26300 ng/mL.

What about the Lung Tissue AUC(0-2 hr) [3, 12] of the same compound?
Its Lung Tissue AUC(0-2 hr) is 3.5 µg·h/g.

And the “Lung Tissue Cmax” value [3, 12]?
The value was 14.4 μg/gram.

What about the Lung Tissue AUC(0-2 hr) ([3]; intratracheal aerosol 5 mg/kg) of the same compound?
The Lung Tissue AUC(0-2 hr) was 6.6 µg·h/g.

And the “Lung Tissue Cmax” value ([3]; intratracheal aerosol 5 mg/kg)?
Its value is 27.9 μg/gram.

And the Lung Tissue AUC(0-2 hr) ([3]; intratracheal aerosol 10 mg/kg)?
Its Lung Tissue AUC(0-2 hr) is 14.5 µg·h/g.

What about the “Lung Tissue Cmax” value ([3]; intratracheal aerosol 10 mg/kg) of the same compound?
Its value is 61.1 μg/gram.

What about the adverse events ([3]; intratracheal aerosol over 2 minutes or oral gavage, Wistar rats) of the same compound?
Its adverse events is “No adverse events were noted”.

What about the Lung Tissue AUC(0-2 hr) ([3]; oral gavage 10 mg/kg) of the same compound?
The Lung Tissue AUC(0-2 hr) was 4.9 µg·h/g.

What about the “Lung Tissue Cmax” value ([3]; oral gavage 10 mg/kg) of the same compound?
Its value is 3.5 μg/gram.

And the Lung Tissue AUC(0-2 hr) ([3]; oral gavage 30 mg/kg)?
Its Lung Tissue AUC(0-2 hr) is 13.5 µg·h/g.

What about the “Lung Tissue Cmax” value ([3]; oral gavage 30 mg/kg) of the same compound?
The value was 9.8 μg/gram.

What about the Lung Tissue AUC(0-2 hr) ([3]; oral gavage 100 mg/kg) of the same compound?
The Lung Tissue AUC(0-2 hr) was 27.9 µg·h/g.

What about the “Lung Tissue Cmax” value ([3]; oral gavage 100 mg/kg) of the same compound?
Its value is 33.6 μg/gram.

What about the half-life ([4]; lung, 1 mg/kg, aerosol 1 mg/kg, read-out: Lung T1/2 α) of the same compound?
Its half-life is < 1 min.

What about the half-life ([4]; lung, 1 mg/kg, aerosol 1 mg/kg, read-out: Lung T1/2 β) of the same compound?
The half-life was 45 min.

And the half-life ([4]; lung, 5 mg/kg, aerosol 5 mg/kg, read-out: Lung T1/2 α)?
Its half-life is < 1 min.

And the half-life ([4]; lung, 5 mg/kg, aerosol 5 mg/kg, read-out: Lung T1/2 β)?
The half-life was 45 min.

What about the half-life ([4]; plasma, 1 mg/kg, aerosol 1 mg/kg, read-out: Plasma T1/2) of the same compound?
The half-life was 30 min.

What about the half-life ([4]; plasma, 5 mg/kg, aerosol 5 mg/kg, read-out: Plasma T1/2) of the same compound?
The half-life was 30 min.

What about the Cmax ([4]; plasma, aerosol 1 mg/kg) of the same compound?
Its Cmax is 1100 ng/mL.

And the AUC(0-t) ([4]; plasma, aerosol 1 mg/kg)?
The AUC(0-t) was 900 ng·h/mL.

What about the Cmax ([4]; plasma, aerosol 5 mg/kg) of the same compound?
The Cmax was 7000 ng/mL.

What about the AUC(0-t) ([4]; plasma, aerosol 5 mg/kg) of the same compound?
Its AUC(0-t) is 4500 ng·h/mL.

What about the “Lung AUC (for time >1 μg/g)” value ([4]; aerosol 1 mg/kg) of the same compound?
Its value is 5.2 mg·h/kg.

What about the “Lung TOE, time of exposure over 1 μg/g lung tissue” value (shortened to “Lung TOE … over 1 μg/g lung tissue”) ([4]; aerosol 1 mg/kg) of the same compound?
Its value is 5 min.

What about the “Lung AUC (for time >1 μg/g)” value ([4]; aerosol 5 mg/kg) of the same compound?
The value was 25.4 mg·h/kg.

And the “Lung TOE … over 1 μg/g lung tissue” value ([4]; aerosol 5 mg/kg)?
Its value is 84 min.

And the “Lung Cmax” value ([4]; aerosol (bolus intratracheal) 1 mg/kg)?
Its value is 101 µg/g.

What about the “Lung Cmax” value ([4]; aerosol (bolus intratracheal) 5 mg/kg) of the same compound?
The value was 508 µg/g.

And the “Lung AUC (for time >1 μg/g)” value ([4]; oral 70 mg/kg)?
Its value is 4.3 mg·h/kg.

What about the “administered pirfenidone excreted in the urine” value [5] of the same compound?
The value was “about 80%”.

And the IC50 [6]?
The IC50 was ~25 µg/mL (≈ 135 µM).

What about the half-life ([7]; Sprague-Dawley, rat, lung, read-out: Lung T1/2 α (only α observed)) of the same compound?
The half-life was 45 min.

And the half-life ([7]; Sprague-Dawley, rat, plasma, read-out: Plasma T1/2)?
The half-life was 30 min.

What about the Cmax ([7]; Sprague-Dawley, rat, plasma, oral 70 mg/kg) of the same compound?
Its Cmax is 8100 ng/mL.

And the AUC(0-t) ([7]; Sprague-Dawley, rat, plasma, oral 70 mg/kg, read-out: Plasma AUC0-6 hrs)?
The AUC(0-t) was 13500 ng·h/mL.

And the “Lung Cmax” value ([7]; oral 70 mg/kg)?
Its value is 3.6 µg/g.

What about the “Lung TOE … over 1 μg/g lung tissue” value ([7]; oral 70 mg/kg) of the same compound?
Its value is 89 min.
